Test results from patent US12030888B2, “Himastatin derivatives, and processes of preparation thereof, and uses thereof” (priority 2021, dated 2024).
≈ marks a conversion by molar mass, not a printed value. Read-outs that look alike come from different tables or passages of the source.

Assays:
[1] = tested on: Vancomycin-Sensitive E. faecalis (T7); assay type: cell-based, Enterococcus faecalis
Protocol: (§1) Bacillus subtilis subsp. spizizenii (ATCC 6633) and Streptomyces himastatinicus (ATCC 53653) were obtained from the American Type Culture Collection (ATCC). Methicillin-resistant and methicillin-susceptible Staphylococcus aureus (Newman), and vancomycin-resistant (V583) and vancomycin-susceptible (T7) Enterococcus faecalis were obtained from the lab of Dr. Roby P. Bhattacharyya (Massachusetts General Hospital).^6 B. subtilis was grown in brain-heart infusion (BHI) medium at 37° C., S. himastatinicus was grown in tryptone-yeast extract broth (ISP medium 2) at 28° C., E. faecalis was grown in Todd-Hewitt broth, and all other organisms were grown in lysogeny broth (LB) medium at 37° C.
(§2) Minimum inhibitory concentration (MIC) was determined using the broth microdilution method. 20-fold stocks of compound in DMSO were diluted 10-fold in MHB medium and 100 μL of each were added to the first well of a 96-well plate. 50 μL of the first well was then serially diluted through 50 μL MHB medium in wells 2-11. To prepare the bacterial culture, an overnight culture was diluted in MHB until the turbidity matched that of McFarland standard 0.5. Then, the culture was diluted 1:100 and added to wells 1-11, resulting in 2-fold dilutions of antibiotic beginning at 64 μg/mL and a final inoculum of 5×10^5 cfu/mL. 100 μL of MHB medium was added to well 12 as a sterility control, and a row containing no antibiotic was used as a growth control. The plate was incubated at the organism's respective growth temperature overnight (B. subtilis) or 72 h (S. himastatinicus) and the MIC was determined using OD600.
(§3) Minimum inhibitory concentration (MIC) was determined using the broth microdilution method.^7 20-fold (1.28 mg/mL) stocks of compound in dimethylsulfoxide, stored as frozen (−80° C.) 30-μL aliquots, were diluted 10-fold in Mueller Hinton broth (MHB) and a 100-μL sample of each was added to the first well of a 96-well plate. A 50-μL sample of the first well was then serially diluted two-fold through 50-μL NMB medium in wells 2-11. A bacterial culture was prepared from a frozen (−80° C.) stock in the organism's respective growth medium and grown overnight. The culture was then diluted in MHB until the turbidity matched that of McFarland standard 0.5 by measuring the optical density at 600 nm (1×10^8 cfu/mL). Then, the culture was diluted 1:100 and a 50-μL aliquot was added to wells 1-11, resulting in 2-fold dilutions of antibiotic from 64 μg/mL down to 0.0625 μg/mL and a final inoculum of 5×10^5 cfu/mL. A 100-μL aliquot of MHB medium was added to well 12 as a sterility control, and a row containing no antibiotic was used as a growth control. The plate was incubated at the organism's respective growth temperature overnight or 72 h (S. himastatinicus). The MIC was determined by observing the well density by eye and, with the exception of S. himastatinicus which grows in solid colonies in media, was confirmed by measuring the optical density of each well at 600 nm. At least two assays were conducted for each organism on identical lots of compound. No degradation of compound stocks in dimethylsulfoxide was observed by LC-MS analysis after being subjected to multiple freeze-thaw cycles.

[2] = tested on: Streptomyces himastatinicus (ATCC 53653); assay type: cell-based
Protocol: as §1, §2, §3

[3] = tested on: Vancomycin-Resistant Enterococcus faecalis (V583); assay type: cell-based
Protocol: as §1, §2, §3

[4] = tested on: Methicillin-Resistant Staphylococcus aureus; assay type: cell-based
Protocol: as §1, §2, §3

[5] = tested on: Bacillus subtilis (ATCC 6633); assay type: cell-based
Protocol: as §1, §2, §3

B. subtilis (ATCC 6633) = test: Microscopy of membrane morphology at sub-lethal concentration, FM 4-64 stain; assay type: cell-based, Bacillus subtilis; conditions: sub-lethal concentration 0.25 μg/mL, 3 h at 37 °C
Protocol: B. subtilis (ATCC 6633) was used for all microscopy experiments. For time-course studies at lethal concentration, culture containing 1 μg/mL FM 4-64 was combined with medium containing himastatin before being immediately added to a 1% agarose pad containing 0.5 μg/mL sytox green (Invitrogen). One section of the agarose pad was then imaged every 5 minutes to monitor cell death. For studies of morphological changes in sub-lethal concentrations, culture was incubated with 0.25 μg/mL (−) or (+)-himastatin for 3 h at 37 C, before being combined with FM 4-64 and added to an agarose pad containing sytox green. Images were collected on a Zeiss AxioPlan2 upright microscope using phase-contrast and equipped with a Hamamatsu Orca-ER cooled CCD camera using standard filter sets for GFP (to visualize SYTOX green; excitation 470/40 nm and emission 525/50 nm), TxRED (to visualize FM 4-64; excitation 565/40 and emission 620/60 nm), and DIC (for phase-contrast). Additional imaged were collected with an RPI Spinning Disk Confocal microscope equipped with a Hamamatsu Orca-ER cooled CCD camera using standard filter sets for GFP (488 nm laser, emission 525/50 nm), RFP (561 nm laser, emission 605/70 nm), and brightfield.
B. subtilis (ATCC 6633) in Mueller Hinton broth (NMB) was used for all microscopy experiments. For time-course studies with natural himastatin at lethal concentration, a bacterial culture matching the optical density of McFarland standard 0.5 (1×10^8 cfu/mL) was supplemented with 1 μg/mL FM 4-64 before being combined with medium containing (−)- or (+)-himastatin (1) (2 μg/mL) immediately before imaging on a 1% agarose pad containing 0.5 μg/mL SYTOX Green (Invitrogen). One section of the agarose pad was then imaged every 5 min to monitor cell death. For studies of morphological changes in bacteria treated with sub-lethal concentrations, culture was incubated with 0.25 μg/mL (−)- or (+)-himastatin (1) for 3 h at 37° C., before being supplemented with 1 μg/mL FM 4-64 and added immediately to an agarose pad. […]

[6] = tested on: Methicillin-Sensitive S. aureus (Newman); assay type: cell-based, Staphylococcus aureus
Protocol: as §1, §2, §3

Gram-positive bacteria = assay type: cell-based; conditions: for antibiotic activity (in words): relative to (−)-himastatin (1) where a derivative
Protocol: as §1, §2, §3

[7] = early investigation (ref. vii); cited from earlier work

In the case of `CC(C)C[C@H]1NC(=O)[C@@H]2C[C@H](O)CNN2C(=O)[C@@H](C(C)C)OC(=O)[C@H](C(C)C)NC(=O)[C@H]2C[C@]3(O)c4cc(-c5ccc6c(c5)[C@@]5(O)C[C@@H]7C(=O)N[C@@H](C(C)C)C(=O)O[C@H](C(C)C)C(=O)N8NC[C@@H](O)C[C@H]8C(=O)N[C@H](CC(C)C)C(=O)N[C@@H]([C@@H](C)O)C(=O)N7[C@H]5N6)ccc4N[C@@H]3N2C(=O)[C@H]([C@@H](C)O)NC1=O` [(+)-1, Ent-Himastatin], the “MIC (μg/mL) VSE faecalis” value ([1]; broth microdilution, Vancomycin-Sensitive E. faecalis (T7), n ≥ 2) is reported as 1 µg/mL (≈ 0.673 µM), the “activity against the producing organism Streptomyces himastatinicus (in words)” value [2] is reported as “completely evade its own resistance mechanism and inhibit its growth” and the “MIC (μg/mL) S. himastatinicus” value ([2]; broth microdilution, Streptomyces himastatinicus (ATCC 53653), 72 h, n ≥ 2) is reported as 0.5 µg/mL (≈ 0.337 µM). For the same compound, the “fold more active in inhibiting the growth of Streptomyces himastatinicus compared to (−)-himastatin (1)” value ([2]; relative to (−)-himastatin (1)) was 4-8 fold, the “MIC (μg/mL) VRE faecalis” value ([3]; broth microdilution, Vancomycin-Resistant Enterococcus faecalis (V583), n ≥ 2) was 2 µg/mL (≈ 1.35 µM) and the “MIC (μg/mL) MRSA” value ([4]; broth microdilution, Methicillin-Resistant Staphylococcus aureus, n ≥ 2) was 4 µg/mL (≈ 2.69 µM). The “MIC (μg/mL) B. subtilis” value ([5]; broth microdilution, Bacillus subtilis (ATCC 6633), growth inhibition determined by eye, n ≥ 2) was 0.5 µg/mL (≈ 0.337 µM), the “membrane morphology (FM 4-64)” value (B. subtilis (ATCC 6633); listed as (+)-ent-himastatin) was “identical” and the “membrane morphology (FM 4-64)” value (B. subtilis (ATCC 6633); listed as ent-(+)-himastatin) was “visual membrane defects”. For the same compound, the “MIC (μg/mL) MSSA” value ([6]; broth microdilution, Methicillin-Sensitive S. aureus (Newman), n ≥ 2) was 2 µg/mL (≈ 1.35 µM).
In the case of `CC(C)C[C@@H]1NC(=O)[C@H]2C[C@@H](O)CNN2C(=O)[C@H](C(C)C)OC(=O)[C@@H](C(C)C)NC(=O)[C@@H]2C[C@@]3(O)c4cc(-c5ccc6c(c5)[C@]5(O)C[C@H]7C(=O)N[C@H](C(C)C)C(=O)O[C@@H](C(C)C)C(=O)N8NC[C@H](O)C[C@@H]8C(=O)N[C@@H](CC(C)C)C(=O)N[C@H]([C@H](C)O)C(=O)N7[C@@H]5N6)ccc4N[C@H]3N2C(=O)[C@@H]([C@H](C)O)NC1=O` [(−)-1, (−)-Himastatin, reference compound], the MIC values (Gram-positive bacteria) is reported as 1 to 2 µg/mL, the “antibiotic activity (in words)” value (Gram-positive bacteria) is reported as “potent antibiotic activity” and the “MIC in Bacillus subtilis” value ([5]; text and figure legend) is reported as 1 µg/mL (≈ 0.673 µM). For the same compound, the “membrane morphology (FM 4-64)” value (B. subtilis (ATCC 6633)) was “visual membrane defects” and the “antibiotic activity in the presence of sodium salts of phospholipids and fatty acids” value [7] was “reduced”.
For `CC(C)[C@@H]1OC(=O)[C@@H](C(C)C)NC(=O)[C@@H]2C[C@@]3(O)c4cc(-c5ccc6c(c5)[C@]5(O)C[C@H]7C(=O)N[C@H](C(C)C)C(=O)O[C@@H](C(C)C)C(=O)N8NC[C@H](O)C[C@@H]8C(=O)N[C@@H](CCCCN=[N+]=[N-])C(=O)N[C@H]([C@H](C)O)C(=O)N7[C@@H]5N6)ccc4N[C@H]3N2C(=O)[C@@H]([C@H](C)O)NC(=O)[C@H](CCCCN=[N+]=[N-])NC(=O)[C@H]2C[C@@H](O)CNN2C1=O` [(−)-32, Himastatin ε-Azidolysine Derivative], the “MIC (μg/mL) VSE faecalis” value ([1]; Vancomycin-Sensitive (T7)) was 0.5 µg/mL (≈ 0.319 µM), the “MIC (μg/mL) S. himastatinicus” value ([2]; ATCC 53653, 72 h) was 8 µg/mL (≈ 5.1 µM) and the “MIC (μg/mL) VRE faecalis” value ([3]; Vancomycin-Resistant (V583)) was 1 µg/mL (≈ 0.638 µM). For the same compound, the “MIC (μg/mL) MRSA” value ([4]; Methicillin-Resistant) was 2 µg/mL (≈ 1.28 µM), the “antibiotic activity (in words)” value (Gram-positive bacteria) was “essentially no impact on the antibiotic activity” and the “MIC (μg/mL) B. subtilis” value ([5]; ATCC 6633) was 2 µg/mL (≈ 1.28 µM). The “MIC (μg/mL) MSSA” value ([6]; Newman) was 1 µg/mL (≈ 0.638 µM).
